# From patent US8785445B2 (Array BioPharma Inc., priority 2008, dated 2014)
# Molecular target: T1, human DP2 (Homo sapiens, UniProt Q9Y5Y4)
# T1 construct: expressed in transfected cells; membranes prepared
# T1 sequence (Q9Y5Y4 1-395): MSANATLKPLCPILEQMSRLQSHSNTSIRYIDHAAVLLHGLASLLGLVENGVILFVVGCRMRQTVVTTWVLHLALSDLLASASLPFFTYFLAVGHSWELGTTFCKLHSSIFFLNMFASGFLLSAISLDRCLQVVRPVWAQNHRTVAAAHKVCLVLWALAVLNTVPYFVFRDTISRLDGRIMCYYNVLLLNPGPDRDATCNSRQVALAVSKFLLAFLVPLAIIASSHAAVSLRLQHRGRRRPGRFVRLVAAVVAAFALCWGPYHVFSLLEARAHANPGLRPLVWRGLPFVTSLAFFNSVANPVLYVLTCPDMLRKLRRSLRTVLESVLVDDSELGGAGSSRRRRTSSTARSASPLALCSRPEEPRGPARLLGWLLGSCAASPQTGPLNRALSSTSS
# Assay: DP-2 binding inhibition assay (3H-PGD2, membranes of DP2-expressing K562 cells)
# Settings: 4% HSA, read-out: EC50 (nM) 4% HSA
# In short: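 Membranes from K562 clones stably expressing human DP2 were incubated 60 min at room temperature with 3H-PGD2 and compound, with 0.1% BSA, 1% HSA or 4% HSA, then filtered and counted.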
row,SMILES,EC50 [nM]
1,"COc1ccc(-c2cccc(CCNC(=O)c3ccc(Oc4cc5c(cc4Cl)C(C(=O)O)CCO5)cc3)n2)cc1 (stereo not drawn) [Example 214, 6-chloro-7-(4-(2-(6-(4-methoxyphenyl)pyridin-2-yl)ethylcarbamoyl)phenoxy)chroman-4-carboxylic acid]",1350
2,"COc1ccc(-c2cccc(CCNC(=O)c3ccc(Oc4cc5c(cc4Cl)C(C(=O)O)CCO5)cc3)n2)cn1 (stereo not drawn) [Example 215, 6-chloro-7-(4-(2-(6′-methoxy-2,3′-bipyridin-6-yl)ethylcarbamoyl)phenoxy)chroman-4-carboxylic acid]",1600
3,"O=C(NCCn1ccc(Cl)cc1=O)c1ccc(Oc2cc3c(cc2Cl)C(C(=O)O)CCO3)cc1 (stereo not drawn) [Example 216, 6-chloro-7-(4-(2-(4-chloro-2-oxopyridin-1(2H)-yl)ethylcarbamoyl)phenoxy)chroman-4-carboxylic acid]",2230
4,"COc1ccc(CCNC(=O)c2ccc(Oc3cc4c(cc3Cl)C(C(=O)O)CCO4)cc2)cn1 (stereo not drawn) [Example 217, 6-chloro-7-(4-(2-(6-methoxypyridin-3-yl)ethylcarbamoyl)phenoxy) chroman-4-carboxylic acid]",1370
5,"O=C(NCCn1ccc(-c2ccc(Cl)cc2)n1)c1ccc(Oc2cc3c(cc2Cl)C(C(=O)O)CCO3)cc1 (stereo not drawn) [Example 219, 6-chloro-7-(4-(2-(3-(4-chlorophenyl)-1H-pyrazol-1-yl)ethylcarbamoyl)phenoxy) chroman-4-carboxylic acid]",1370
6,"CC(C)(C)c1csc(CCNC(=O)c2ccc(Oc3cc4c(cc3Cl)C(C(=O)O)CCO4)cc2)n1 (stereo not drawn) [Example 222, 7-(4-(2-(4-tert-butylthiazol-2-yl)ethylcarbamoyl)phenoxy)-6-chlorochroman-4-carboxylic acid]",1070
7,"O=C(NCCc1cccnc1N1CCCCC1)c1ccc(Oc2cc3c(cc2Cl)C(C(=O)O)CCO3)cc1 (stereo not drawn) [Example 226, 6-chloro-7-(4-(2-(2-(piperidin-1-yl)pyridin-3-yl)ethylcarbamoyl)phenoxy) chroman-4-carboxylic acid]",1920

# The next compounds have a lower EC50 than those just listed; values first:
row,EC50 [nM],SMILES
1,404,"COc1cccc(CCNC(=O)c2ccc(Oc3cc4c(cc3Cl)C(C(=O)O)CCO4)cc2)n1 (stereo not drawn) [Example 218, 6-chloro-7-(4-(2-(6-methoxypyridin-2-yl)ethylcarbamoyl)phenoxy) chroman-4-carboxylic acid]"
2,379,"COc1ncc(CCNC(=O)c2ccc(Oc3cc4c(cc3Cl)C(C(=O)O)CCO4)cc2)c(OC)n1 (stereo not drawn) [Example 220, 6-chloro-7-(4-(2-(2,4-dimethoxypyrimidin-5-yl)ethylcarbamoyl)phenoxy) chroman-4-carboxylic acid]"
3,962,"O=C(NCCc1cccc(-c2ccccc2Cl)n1)c1ccc(Oc2cc3c(cc2Cl)C(C(=O)O)CCO3)cc1 (stereo not drawn) [Example 221, 6-chloro-7-(4-(2-(6-(2-chlorophenyl)pyridin-2-yl)ethylcarbamoyl)phenoxy) chroman-4-carboxylic acid]"
4,210,"O=C(NCCc1cccnc1C1CC1)c1ccc(Oc2cc3c(cc2Cl)C(C(=O)O)CCO3)cc1 (stereo not drawn) [Example 223, 6-chloro-7-(4-(2-(2-cyclopropylpyridin-3-yl)ethylcarbamoyl)phenoxy) chroman-4-carboxylic acid]"
5,998,"O=C(NCCc1cccnc1-c1ccccc1Cl)c1ccc(Oc2cc3c(cc2Cl)C(C(=O)O)CCO3)cc1 (stereo not drawn) [Example 224, 6-chloro-7-(4-(2-(2-(2-chlorophenyl)pyridin-3-yl)ethylcarbamoyl)phenoxy) chroman-4-carboxylic acid]"
6,664,"CN(C)c1ncccc1CCNC(=O)c1ccc(Oc2cc3c(cc2Cl)C(C(=O)O)CCO3)cc1 (stereo not drawn) [Example 225, 6-chloro-7-(4-(2-(2-(dimethylamino)pyridin-3-yl)ethylcarbamoyl)phenoxy) chroman-4-carboxylic acid]"
7,857,"COc1ncccc1CCNC(=O)c1ccc(Oc2cc3c(cc2Cl)C(C(=O)O)CCO3)cc1 (stereo not drawn) [Example 227, 6-chloro-7-(4-(2-(2-methoxypyridin-3-yl)ethylcarbamoyl)phenoxy) chroman-4-carboxylic acid]"
8,195,"CC(C)Oc1ncccc1CCNC(=O)c1ccc(Oc2cc3c(cc2Cl)C(C(=O)O)CCO3)cc1 (stereo not drawn) [Example 228, 6-chloro-7-(4-(2-(2-isopropoxypyridin-3-yl)ethylcarbamoyl)phenoxy) chroman-4-carboxylic acid]"
